Tested on: cytochrome P450 1A1 (CYP1A1)
Assay: CYP1A1 expression in colonic mucosal tissue of UC patients by RT-PCR (Example 8)
Type: in vivo, human
Details: mucosal healing (Mayo sub-score 0/1) after treatment
Description: AhR is a ligand-activated transcription factor that ultimately acts in the nucleus in promoting transcription of various genes, including among others cytochrome P450 1A1 (CYP1A1) which is one of the most important xenobiotic-metabolizing enzymes and an important regulator of immune response in the intestine. Therefore, the inventors studied the expression of CYP1A1 in samples of colonic mucosal tissue obtained from UC patients, using RT-PCR.
Samples of colonic tissue were obtained during lower endoscopy from UC patients treated with CurQD and patients treated by other medications or placebo. Tissue specimens were immersed in liquid nitrogen. Biopsy samples were lysed and homogenized in TRI-Reagent and extracted according to the manufacturer's instructions (Life technologies, USA). Reverse transcription was performed on lug total RNA using the High Capacity RNA to cDNA kit according to the manufacturer's instructions (Applied Biosystems Foster City, CA USA) and Hs01054796_g1 assay for CYP1A1 and Hs99999905_m1 assay for GAPDH (housekeeping gene).

## Nc1ccc(O)c(C(=O)O)c1 [Batch 5ASA, 5-aminosalicylic acid]
  median CYP1A1 expression in patients who achieved mucosal healing: 4.6

— patent US20260256868A1, “COMBINATION HERBAL MEDICINES FOR THE TREATMENT OF INFLAMMATORY BOWEL DISORDERS” (EVINATURE LTD., priority 2022, published 2026)
